# Laboratory results: patent US11535670B2, “Combination therapies of HDAC inhibitors and PD-L1 inhibitors” (HUYABIO International, LLC, priority 2016, dated 2022)
# Test system: MC38 murine colon carcinoma
# Test: Example 1: tumor growth delay in MC38 syngeneic model, HBI-8000 at two doses alone and with PD-L1 inhibitor antibody
# Assay type: in vivo, C57BL/6 mice
# Conditions: for Median TTE: endpoint 1000 mm^3 or Day 47; for % TGD: versus vehicle
# Description: In Example 1 HBI-8000 was tested in two doses as monotherapy and in two doses in combination with PD-L1 inhibitor antibody at 5 mg/kg. The experiment included a vehicle-treated group and a PD-L1 inhibitor antibody monotherapy group, which served as control groups for analysis of efficacy. Tumors were measured twice per week until the study was ended on Day 47. Each animal was euthanized when its tumor attained the endpoint tumor volume of 1000 mm^3 or on the final day of the study, whichever came first, and the time to endpoint (TTE) for each mouse was calculated. Treatment response was determined from an analysis of percent tumor growth delay (% TGD), defined as the percent increase in the median time to endpoint (TTE) for treated versus control mice; and by logrank significance of differences in survival among groups and regression responses.
# Mice: Female C57BL/6 mice (Charles River Laboratories) were eight weeks old, with a body weight (BW) range of 15.4 to 22.0 grams on Day 1 of the study. The animals were fed ad libitum water (reverse osmosis, 1 ppm Cl), and NIH 31 Modified and Irradiated Lab Diet® consisting of 18.0% crude protein, 5.0% crude fat, and 5.0% crude fiber. The mice were housed on irradiated Enrich-o′cobs™ Laboratory Animal Bedding in static microisolators on a 12-hour light cycle at 20-22° C. (68-72° F.) and 40-60% humidity.
# Tumor Cell Culture: MC38 murine colon carcinoma cells were maintained in Dulbecco's Modified Eagle Medium (DMEM) supplemented with 10% fetal bovine serum and 2 mM glutamine, 100 units/mL penicillin G sodium, 100 μg/mL streptomycin sulfate, and 25 μg/mL gentamicin. Cell cultures were maintained in tissue culture flasks in a humidified incubator at 37° C., in an atmosphere of 5% CO2 and 95% air.
# Tumor Implantation: Cells were harvested during exponential growth, and resuspended in cold DMEM. Each mouse was inoculated subcutaneously in the right flank with 1×10^6 cells (0.1 mL of cell suspension). Tumors were calipered in two dimensions to monitor growth as their mean volume approached the desired 100-150 mm^3 range. Tumor burden was calculated using the formula:
# [formula] • where w=width and l=length, in mm, of the tumor. Tumor weight may be estimated with the assumption that 1 mg is equivalent to 1 mm^3 of tumor volume. […]
# Tumor Growth Delay: Tumors were measured using calipers twice per week, and each animal was euthanized when its tumor reached a volume of 1000 mm^3 or at the end of the study (D47), whichever came first. […] The time to endpoint (TTE) for analysis was calculated for each mouse by the following equation: […]
# [1] = HBI-8000 20 mg/kg p.o. qd×21, alone or plus anti-PDL-1 5 mg/kg i.p. biwk×3
# [2] = HBI-8000 50 mg/kg p.o. qd×21, alone or plus anti-PDL-1 5 mg/kg i.p. biwk×3
smiles,measurement,setting,value
"Nc1cc(F)ccc1NC(=O)c1ccc(CNC(=O)/C=C/c2cccnc2)cc1 [HBI-8000, N-(2-amino-4-fluorophenyl)-4-[[[(2E)-1-oxo-3-(3-pyridinyl)-2-propen-1-yl]amino]methyl]benzamide]",Median TTE,[1],18.9 days
same,% TGD,[1],−8%
same,Median TTE,[2],22.8 days
same,% TGD,[2],11%
